# Experimental data from article PMC7070407, “Moringin, A Stable Isothiocyanate from Moringa oleifera, Activates the Somatosensory and Pain Receptor TRPA1 Channel In Vitro” (Molecules, 2020).
# Experiments:
# [1] = test system: not transfected HEK-293 cells; experiment: Effect on [Ca2+]i in not transfected HEK-293 cells (baseline); assay type: cell-based, human; conditions: AITC 100 μM
# Experimental: Compound and extracts’ effects on intracellular Ca^2+ concentration ([Ca^2+]i) were determined using the selective intracellular fluorescent probe for Ca^2+ Fluo-4. Assay of rat TRPA1, TRPV2, TRPV3, TRPV4, TRPM8 or human TRPV1 mediated elevation of intracellular Ca^2+ in transfected HEK-293 cells are been performed as described. Briefly, human embryonic kidney (HEK-293) cells, stably transfected with rat TRPA1, TRPV2, TRPV3, TRPV4, TRPM8 or human TRPV1 (selected by Geneticin 600 μg mL^−1) or not transfected, were cultured in EMEM + 2 mM Glutamine + 1% Non-Essential Amino Acids (NEAA) + 10% FBS and maintained at 37 °C with 5% CO2. Stable transfections were checked by quantitative real-time polymerase chain reaction (PCR), quantitative real-time PCR was performed by an iCycler-iQ (Bio-Rad, Hercules, CA, USA) in a 20 μL reaction mixture containing the following: 10 μL iQ SYBR Green Supermix 2X (Bio-Rad), 20 ng of cDNA (calculated on the basis of the retro-transcribed RNA), and 330 nM for each primer. […] Cell fluorescence before and after the addition of various concentrations of test compounds and extracts were measured normalizing the effects against the response to ionomycin (4 µM). […] The potency of the compounds (EC50 values) are determined as the concentration required to produce half-maximal increases in [Ca^2+]i. […]
# rat TRPA1 = target: T1, rat TRPA1 (Rattus norvegicus, UniProt Q6RI86); experiment: Elevation of intracellular Ca2+ (Fluo-4) in HEK-293 cells stably transfected with rat TRPA1; agonist and antagonist/desensitizing behaviour; assay type: cell-based; conditions: AP18 at 50 μM, 5 min pre-incubation, rTRPA1-HEK-293
# T1 construct: expressed in transfected cells; host or cells: HEK-293
# T1 sequence (Q6RI86 whole entry): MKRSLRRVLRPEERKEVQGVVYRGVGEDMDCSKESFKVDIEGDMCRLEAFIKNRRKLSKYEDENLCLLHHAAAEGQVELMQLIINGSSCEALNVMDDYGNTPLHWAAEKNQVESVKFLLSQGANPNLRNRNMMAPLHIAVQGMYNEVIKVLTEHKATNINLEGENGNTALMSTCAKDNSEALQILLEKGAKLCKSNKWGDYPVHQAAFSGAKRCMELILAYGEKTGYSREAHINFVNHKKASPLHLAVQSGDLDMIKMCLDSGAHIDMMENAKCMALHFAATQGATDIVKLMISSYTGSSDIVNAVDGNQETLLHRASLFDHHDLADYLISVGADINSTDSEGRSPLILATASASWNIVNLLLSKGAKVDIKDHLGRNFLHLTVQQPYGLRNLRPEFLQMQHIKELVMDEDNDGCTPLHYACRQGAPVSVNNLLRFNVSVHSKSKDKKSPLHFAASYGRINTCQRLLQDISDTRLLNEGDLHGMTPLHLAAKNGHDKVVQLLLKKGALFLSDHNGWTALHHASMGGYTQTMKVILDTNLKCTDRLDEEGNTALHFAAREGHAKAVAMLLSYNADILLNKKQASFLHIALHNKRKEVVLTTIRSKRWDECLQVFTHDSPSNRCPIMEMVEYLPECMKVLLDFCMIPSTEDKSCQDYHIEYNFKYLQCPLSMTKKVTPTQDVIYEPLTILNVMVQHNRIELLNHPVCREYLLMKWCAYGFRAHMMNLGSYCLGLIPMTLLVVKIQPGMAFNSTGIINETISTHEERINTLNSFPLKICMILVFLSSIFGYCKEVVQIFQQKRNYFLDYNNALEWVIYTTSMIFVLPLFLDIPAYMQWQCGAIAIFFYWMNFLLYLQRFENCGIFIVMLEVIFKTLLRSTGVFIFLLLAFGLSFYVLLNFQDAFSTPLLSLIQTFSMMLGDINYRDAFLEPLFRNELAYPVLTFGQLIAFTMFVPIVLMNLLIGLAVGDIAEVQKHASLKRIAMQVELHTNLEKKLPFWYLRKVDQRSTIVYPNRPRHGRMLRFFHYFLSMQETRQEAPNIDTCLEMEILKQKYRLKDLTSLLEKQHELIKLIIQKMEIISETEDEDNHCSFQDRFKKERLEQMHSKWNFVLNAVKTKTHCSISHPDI
# Experimental: Assay of rat TRPA1, TRPV2, TRPV3, TRPV4, TRPM8 or human TRPV1 mediated elevation of intracellular Ca^2+ in transfected HEK-293 cells are been performed as described. Briefly, human embryonic kidney (HEK-293) cells, stably transfected with rat TRPA1, TRPV2, TRPV3, TRPV4, TRPM8 or human TRPV1 (selected by Geneticin 600 μg mL^−1) or not transfected, were cultured in EMEM + 2 mM Glutamine + 1% Non-Essential Amino Acids (NEAA) + 10% FBS and maintained at 37 °C with 5% CO2. Stable transfections were checked by quantitative real-time polymerase chain reaction (PCR), quantitative real-time PCR was performed by an iCycler-iQ (Bio-Rad, Hercules, CA, USA) in a 20 μL reaction mixture containing the following: 10 μL iQ SYBR Green Supermix 2X (Bio-Rad), 20 ng of cDNA (calculated on the basis of the retro-transcribed RNA), and 330 nM for each primer. Optimized primers for SYBR Green analysis (and relative TaOpt) and optimum annealing temperatures were designed by Allele-Id software version 7.0 (Biosoft International, Palo Alto, CA, USA) and were synthesized (HPLC-purification grade) by MWG-Biotech AG (Ebersberg, Germany). Assays were performed in quadruplicate (maximal ΔCt of replicate samples, <0.5). Relative expression analysis, correct for PCR efficiency and normalized with respect to reference genes β-actin and glyceraldehyde 3-phosphate dehydrogenase, was performed by GENEX software (Bio-Rad). […] The day of the experiment the cells were loaded with Fluo-4 AM (4 μM in DMSO containing 0.02% Pluronic F-127) for 1 h in the dark at room temperature, rinsed and resuspended in Tyrode’s solution (145 mM NaCl, 2.5 mM KCl, 1.5 mM CaCl2, 1.2 mM MgCl2, 10 mM D-glucose, and 10 mM HEPES, pH 7.4), finally transferred to a quartz cuvette of a spectrofluorimeter (Perkin-Elmer LS50B; λEX = 488 nm, λEM = 516 nm) equipped with PTP-1 Fluorescence Peltier System (PerkinElmer Life and Analytical Sciences, Waltham, MA, USA) under continuous stirring. Cell fluorescence before and after the addition of various concentrations of test compounds and extracts were measured normalizing the effects against the response to ionomycin (4 µM). The values of the effect on [Ca^2+]i in HEK-293 cells not transfected are used as baseline and subtracted from the values obtained from transfected cells. […] The potency of the compounds (EC50 values) are determined as the concentration required to produce half-maximal increases in [Ca^2+]i. In TRPV3 assay TRPV3-expressing HEK293 cells were first sensitized with the structurally unrelated agonist 2-aminoethoxydiphenyl borate (100 μM). Antagonist/desensitizing behaviour is evaluated against the agonist of the TRP analyzed by adding the compounds directly in the quartz cuvette 5 min before stimulation of cells with the agonist. […] In order to assess functional antagonism of TRPA1 channels, AP18, 4-(4-chlorophenyl)-3-methyl-3-buten-2-one oxime […] Dose-response curve fitting (sigmoidal dose-response variable slope) and parameter estimation were performed with Graph-Pad Prism8® (GraphPad Software Inc., San Diego, CA, USA). All determinations were performed at least in triplicate.
SMILES,Effect on not transfected HEK-293 cells [1],Reduction of elevation of intracellular Ca2+ induced by AITC (100 μM) (rat TRPA1),Reduction of elevation of intracellular Ca2+ induced by moringin (10 μM) (rat TRPA1)
"C=CCN=C=S [AITC, Allylisothiocyanate, reference compound]",about 1%,,
"CC(=Cc1ccc(Cl)cc1)C(C)=NO [AP18, 4-(4-chlorophenyl)-3-methyl-3-buten-2-one oxime, reference compound]",,68.6 ± 3.0%,64.1 ± 2.7%
